# In patent US9133204B2, “5-membered heterocyclic amides and related compounds” (H. Lundbeck A/S, priority 2007, dated 2015):
# Biological target: T1, P2X7 receptor (Homo sapiens, UniProt Q99572)
# T1 construct: host or cells: SH-SY5Y
# T1 sequence (Q99572 1-595): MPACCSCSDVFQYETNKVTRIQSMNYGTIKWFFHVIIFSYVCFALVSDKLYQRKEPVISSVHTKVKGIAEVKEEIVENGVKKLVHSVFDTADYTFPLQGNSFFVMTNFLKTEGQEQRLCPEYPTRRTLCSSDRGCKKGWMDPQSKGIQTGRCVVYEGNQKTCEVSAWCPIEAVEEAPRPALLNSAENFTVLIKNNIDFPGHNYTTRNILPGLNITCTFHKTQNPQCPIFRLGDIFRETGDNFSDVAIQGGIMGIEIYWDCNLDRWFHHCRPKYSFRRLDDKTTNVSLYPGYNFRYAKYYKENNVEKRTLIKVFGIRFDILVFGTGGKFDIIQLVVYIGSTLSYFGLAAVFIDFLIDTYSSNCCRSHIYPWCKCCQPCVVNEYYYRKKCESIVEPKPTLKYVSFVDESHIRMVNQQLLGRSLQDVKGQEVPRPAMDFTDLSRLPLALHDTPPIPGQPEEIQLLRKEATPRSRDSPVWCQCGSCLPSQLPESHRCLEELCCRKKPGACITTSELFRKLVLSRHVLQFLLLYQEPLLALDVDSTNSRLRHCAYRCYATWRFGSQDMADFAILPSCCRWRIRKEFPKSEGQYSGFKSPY
# Assay: High throughput P2X7 calcium mobilization assay (Example 4A)
# Assay type: cell-based
# Conditions: SH-SY5Y cells; 50% decrease in fluorescence response of cells exposed to 80 μM BzATP; Table I
# Method in brief: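 Calcium mobilization read by FLIPR as peak fluorescence over 2 min after adding BzATP to a final 80 μM (about EC50). Beforehand, Fluo-4 AM-loaded SH-SY5Y cells sat 1 h at room temperature with compound at 1–2500 nM in pH 7.4 sucrose/HEPES buffer; signal minus no-agonist wells.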
row,SMILES,IC50
1,"O=C(NCC1(c2cccnc2)CCCCC1)c1sc(-c2ncccn2)nc1C(F)(F)F [Compound 161, N-[(1-pyridin-3-ylcyclohexyl)methyl]-2-pyrimidin-2-yl-4-(trifluoromethyl)-1,3-thiazole-5-carboxamide]",≤ 2000 nM
2,"CC(C)n1nc(CN2CCCC(N)C2)cc1C(=O)NCC12CC3CC(CC(C3)C1)C2 (stereo not drawn) [Compound 55, N-(adamantan-1-ylmethyl)-3-[(3-aminopiperidin-1-yl)methyl]-1-isopropyl-1H-pyrazole-5-carboxamide]",≤ 2000 nM
3,"O=C(NCC1(c2ccc(Cl)nc2)CCCC1)c1sc(-c2ncccn2)nc1C(F)(F)F [Compound 287, N-{[1-(6-chloropyridin-3-yl)cyclopentyl]methyl}-2-pyrimidin-2-yl-4-(trifluoromethyl)-1,3-thiazole-5-carboxamide]",≤ 2000 nM
4,"Cn1nc(C(F)(F)F)cc1-c1ccc(C(=O)NCC23CC4CC(CC(C4)C2)C3)s1 [Compound 80, N-(1-adamantylmethyl)-5-[1-methyl-3-(trifluoromethyl)-1H-pyrazol-5-yl]thiophene-2-carboxamide]",≤ 2000 nM
5,"O=C(NCCc1ccccc1Br)c1cn(-c2ncccn2)nc1C(F)(F)F [Compound 218, N-[2-(2-bromophenyl)ethyl]-1-pyrimidin-2-yl-3-(trifluoromethyl)-1H-pyrazole-4-carboxamide]",≤ 2000 nM
6,"COC(=O)c1cc(C(=O)NCC23CC4CC(CC(C4)C2)C3)n(C(C)C)n1 [Compound 47, methyl 5-[(adamantan-1-ylmethyl)carbamoyl]-1-isopropyl-1H-pyrazole-3-carboxylate]",≤ 2000 nM
7,"Cc1c(N)ncnc1-n1cc(C(=O)NCC23CC4CC(CC(C4)C2)C3)c(C(F)(F)F)n1 [Compound 128, N-(adamantan-1-ylmethyl)-1-(6-amino-5-methylpyrimidin-4-yl)-3-(trifluoromethyl)-1H-pyrazole-4-carboxamide]",≤ 2000 nM
8,"C=Cc1nc(-n2cc(C(=O)NCC34CC5CC(CC(C5)C3)C4)c(C)n2)ncc1C [Compound 103, N-(adamantan-1-ylmethyl)-3-methyl-1-(5-methyl-4-vinylpyrimidin-2-yl)-1H-pyrazole-4-carboxamide]",≤ 2000 nM
9,"Cc1cnc(-n2cc(C(=O)NCC3(c4cccnc4)CCCCC3)c(C(F)(F)F)n2)nc1N [Compound 156, 1-(4-amino-5-methylpyrimidin-2-yl)-N-[(1-pyridin-3-ylcyclohexyl)methyl]-3-(trifluoromethyl)-1H-pyrazole-4-carboxamide]",≤ 2000 nM
10,"CSc1ccc(C(=O)NCC23CC4CC(CC(C4)C2)C3)s1 [Compound 75, N-(1-adamantylmethyl)-5-(methylthio)thiophene-2-carboxamide]",≤ 2000 nM
11,"CCc1nc(-c2ncccn2)sc1C(=O)NCC1(c2ccc(OC)cc2)CCCC1 [Compound 269, 4-ethyl-N-{[1-(4-methoxyphenyl)cyclopentyl]methyl}-2-pyrimidin-2-yl-1,3-thiazole-5-carboxamide]",≤ 2000 nM
12,"Nc1cncc(-n2cc(C(=O)NCC34CC5CC(CC(C5)C3)C4)c(C(F)(F)F)n2)n1 [Compound 137, N-(adamantan-1-ylmethyl)-1-(6-aminopyrazin-2-yl)-3-(trifluoromethyl)-1H-pyrazole-4-carboxamide]",≤ 2000 nM
13,"Cc1nn(-c2ncccn2)cc1C(=O)NCC1(c2ccc(C(F)(F)F)cc2)CCCCC1 [Compound 181, 3-methyl-1-pyrimidin-2-yl-N-({1-[4-(trifluoromethyl)phenyl]cyclohexyl]methyl)-1H-pyrazole-4-carboxamide]",≤ 2000 nM
14,"O=C(NCC(CCC1CCCCC1)c1ccccc1)c1cn(-c2ncccn2)nc1C(F)(F)F (stereo not drawn) [Compound 214, N-(4-cyclohexyl-2-phenylbutyl)-1-pyrimidin-2-yl-3-(trifluoromethyl)-1H-pyrazole-4-carboxamide]",≤ 2000 nM
15,"COc1cnc(-n2cc(C(=O)NCC3(c4cccnc4)CCCCC3)c(C(F)(F)F)n2)nc1 [Compound 191, 1-(5-methoxypyrimidin-2-yl)-N-[(1-pyridin-3-ylcyclohexyl)methyl]-3-(trifluoromethyl)-1H-pyrazole-4-carboxamide]",≤ 2000 nM

# Now from value to molecule:
row,IC50,SMILES
1,≤ 2000 nM,"O=C(NCC1(c2cccnc2)CCCCC1)c1sc(N2CCNCC2)nc1C(F)(F)F [Compound 300, 2-piperazin-1-yl-N-[(1-pyridin-3-ylcyclohexyl)methyl]-4-(trifluoromethyl)-1,3-thiazole-5-carboxamide]"
2,≤ 2000 nM,"Cc1cnc(-n2cc(C(=O)NCC34CC5CC(CC(C5)C3)C4)c(C)n2)nc1-c1ccccn1 [Compound 121, N-(adamantan-1-ylmethyl)-3-methyl-1-(5-methyl-4-pyridin-2-ylpyrimidin-2-yl)-1H-pyrazole-4-carboxamide]"
3,≤ 2000 nM,"O=C(NCC1(c2cccnc2)CCCCC1)c1sc(-c2cccc3cccnc23)nc1C(F)(F)F [Compound 319, N-[(1-pyridin-3-ylcyclohexyl)methyl]-2-quinolin-8-yl-4-(trifluoromethyl)-1,3-thiazole-5-carboxamide]"
4,≤ 2000 nM,"CCc1nc(-c2ncccn2)sc1C(=O)NC[C@@H]1CCC2CC1C2(C)C (stereo partly drawn) [Compound 248, N-{[(2R)-6,6-dimethylbicyclo[3.1.1]hept-2-yl]methyl}-4-ethyl-2-pyrimidin-2-yl-1,3-thiazole-5-carboxamide]"
5,≤ 2000 nM,"CCn1nc(C)c(Br)c1C(=O)NCC12CC3CC(CC(C3)C1)C2 [Compound 63, N-(adamantan-1-ylmethyl)-4-bromo-1-ethyl-3-methyl-1H-pyrazole-5-carboxamide]"
6,≤ 2000 nM,"CCCC(CNC(=O)c1sc(-c2ncccn2)nc1C(F)(F)F)c1ccc(Cl)cc1 (stereo not drawn) [Compound 160, N-[2-(4-chlorophenyl)pentyl]-2-pyrimidin-2-yl-4-(trifluoromethyl)-1,3-thiazole-5-carboxamide]"
7,≤ 2000 nM,"CCn1nc(C)c(Br)c1C(=O)NCC(c1ccccc1)c1ccccc1 [Compound 50, 4-bromo-N-(2,2-diphenylethyl)-1-ethyl-3-methyl-1H-pyrazole-5-carboxamide]"
8,≤ 2000 nM,"Cc1cnc(-n2cc(C(=O)NCC34CC5CC(CC(C5)C3)C4)c(C)n2)nc1-c1cncnc1 [Compound 120, N-(adamantan-1-ylmethyl)-3-methyl-1-(5-methyl-4,5′ bipyrimidin-2-yl)-1H-pyrazole-4-carboxamide]"
9,≤ 2000 nM,"CCCCCCCC(CNC(=O)c1cn(-c2ncccn2)nc1C(F)(F)F)c1ccccc1 (stereo not drawn) [Compound 208, N-(2-phenylnonyl)-1-pyrimidin-2-yl-3-(trifluoromethyl)-1H-pyrazole-4-carboxamide]"
10,≤ 2000 nM,"Cc1nn(-c2ncc(F)cn2)cc1C(=O)NCC(CC(C)C)c1ccc(Cl)cc1 (stereo not drawn) [Compound 114, N-[2-(4-chlorophenyl)-4-methylpentyl]-1-(5-fluoropyrimidin-2-yl)-3-methyl-1H-pyrazole-4-carboxamide]"
11,≤ 2000 nM,"Cc1cnc(-n2cc(C(=O)NCC34CC5CC(CC(C5)C3)C4)c(C)n2)nc1Br [Compound 91, N-(adamantan-1-ylmethyl)-1-(4-bromo-5-methylpyrimidin-2-yl)-3-methyl-1H-pyrazole-4-carboxamide]"
12,≤ 2000 nM,"CC(C)CC(CNC(=O)c1cn(-c2ncc(F)c(N)n2)nc1C(F)(F)F)c1ccc(Cl)cc1 (stereo not drawn) [Compound 140, 1-(4-amino-5-fluoropyrimidin-2-yl)-N-[2-(4-chlorophenyl)-4-methylpentyl]-3-(trifluoromethyl)-1H-pyrazole-4-carboxamide]"

# Same assay, conditions: SH-SY5Y cells; 50% decrease in fluorescence response of cells exposed to 80 μM BzATP; flag after the MS data in Examples 1-2
row,SMILES,IC50
1,"CN(C)[C@@H]1CCN(c2nc(C(F)(F)F)c(C(=O)NCC3(c4cccnc4)CCCCC3)s2)C1 [Compound 27, 2-((R)-3-Dimethylamino-pyrrolidin-1-yl)-4-trifluoromethyl-thiazole-5-carboxylic acid (1-pyridin-3-yl-cyclohexylmethyl)-amide]",≤ 2000 nM
2,"CCCC(CNC(=O)c1sc(-c2cccnc2)nc1C)c1ccc(Cl)cc1 (stereo not drawn) [Compound 35, N-[2-(4-chlorophenyl)pentyl}-4-methyl-2-pyridin-3-yl-1,3-thiazole-5-carboxamide]",≤ 2000 nM
3,"CC(C)CC(CNC(=O)c1cn(-c2ncccn2)nc1Cl)c1ccc(C(F)(F)F)cc1 (stereo not drawn) [Compound 9, 3-Chloro-N-{4-methyl-2-[4-(trifluoromethyl)phenyl]pentyl}-1-pyrimidin-2-yl-1H-pyrazole-4-carboxamide]",≤ 2000 nM

# Other lines, results leading:
row,IC50,SMILES
1,≤ 2000 nM,"CC(C)CC(CNC(=O)c1sc(-c2ncccn2)nc1C(F)(F)F)c1ccc(Cl)cc1 (stereo not drawn) [Compound 22, 4-trifluoromethyl-2-pyrimidin-2-yl-thiazole-5-carboxylic acid[2-(4-chloro-phenyl)-4-methyl-pentyl]-amide]"
2,≤ 2000 nM,"Nc1nc(-n2cc(C(=O)NCC34CC5CC(CC(C5)C3)C4)c(C(F)(F)F)n2)ncc1F [Compound 1, N-(Adamantan-1-ylmethyl)-1-(4-amino-5-fluoropyrimidin-2-yl)-3-(trifluoromethyl)-1H-pyrazole-4-carboxamide]"
3,≤ 2000 nM,"COc1nn(-c2ncccn2)cc1C(=O)NCC12CC3CC(CC(C3)C1)C2 [Compound 5, N-(Adamantan-1-ylmethyl)-3-methoxy-1-pyrimidin-2-yl-1H-pyrazole-4-carboxamide]"
